Peptide text beside a SMILES is read from it. * marks the point of attachment. Biotin = O=C1N[C@H]2[C@H](CS[C@H]2CCCCC(=O)*)N1
Legend:
[1] = target: T1, PDZ protein (GST-PDZ fusion) (Homo sapiens, UniProt Q92796); assay: G' assay (10 uM PL peptide), results of TABLE 7 and TABLE 12; type: binding; settings: PDZ NeDLG
T1 construct: made in house; host or cells: E. coli (DH5alpha, BL21 or JM109)
T1 sequence (Q92796 1-817): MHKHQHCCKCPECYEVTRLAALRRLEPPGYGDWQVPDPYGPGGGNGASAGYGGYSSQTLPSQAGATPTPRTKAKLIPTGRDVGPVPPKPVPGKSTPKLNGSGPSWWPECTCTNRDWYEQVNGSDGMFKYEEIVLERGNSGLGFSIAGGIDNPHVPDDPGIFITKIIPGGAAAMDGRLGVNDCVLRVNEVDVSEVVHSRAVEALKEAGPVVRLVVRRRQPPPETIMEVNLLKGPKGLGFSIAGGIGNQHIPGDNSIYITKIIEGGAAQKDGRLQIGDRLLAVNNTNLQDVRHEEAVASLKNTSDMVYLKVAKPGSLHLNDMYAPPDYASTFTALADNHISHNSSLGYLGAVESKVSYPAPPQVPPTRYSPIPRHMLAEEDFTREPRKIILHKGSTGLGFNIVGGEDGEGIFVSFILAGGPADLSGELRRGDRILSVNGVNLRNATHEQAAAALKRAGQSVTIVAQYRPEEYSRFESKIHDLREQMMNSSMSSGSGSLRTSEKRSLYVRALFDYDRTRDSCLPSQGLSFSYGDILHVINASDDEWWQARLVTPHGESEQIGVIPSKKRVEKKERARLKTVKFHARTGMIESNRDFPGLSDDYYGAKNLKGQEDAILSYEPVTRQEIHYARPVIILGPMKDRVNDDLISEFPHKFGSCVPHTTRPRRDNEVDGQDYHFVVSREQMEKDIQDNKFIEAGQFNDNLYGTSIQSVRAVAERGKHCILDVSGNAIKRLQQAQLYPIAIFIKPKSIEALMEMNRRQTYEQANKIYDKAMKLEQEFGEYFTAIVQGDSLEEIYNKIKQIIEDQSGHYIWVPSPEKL
How it was run: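 Biotinylated PL peptides at 10 uM (vs 20 uM in G^0 assay) bound to GST-PDZ fusions; PDZ protein at 5 ug/ml unless another concentration listed. Bound peptide read as A450 nm, classified 0–5 (0 = A450 0; 5 = A450 >4 repeated).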

[2] = target: PDZ-domain polypeptide (GST/PDZ fusion protein); assay: Apparent affinity (Kd) by titration of PL peptide in the G assay; type: binding; settings: PDZ FLJ 00011, PDZ Domain 1; read-out: Peptide Optimal Conc (Kd by titration of the PL peptide)
How it was run: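 A fixed concentration of GST/PDZ fusion protein, 5 ug/ml by default, was mixed in solution with increasing labeled PL peptide (e.g. 0.1 uM-1 mM). Reaction times ranged from 10 minutes to 2 days at 4-37° C. Complexes were separated from free peptide and detected via the label as in the G assay, apparent affinity coming from the saturating concentration.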

Question: `CSCC[C@H](NC(=O)[C@H](C)NC(=O)[C@H](CCCNC(=N)N)NC(=O)CNC(=O)[C@@H](NC(=O)[C@H](Cc1c[nH]c2ccccc12)NC(=O)[C@H](CCCNC(=N)N)NC(=O)CNC(=O)CCCC[C@@H]1SC[C@@H]2NC(=O)N[C@@H]21)[C@@H](C)O)C(=O)N[C@@H](CO)C(=O)N[C@@H](C)C(=O)N[C@@H](Cc1c[nH]c2ccccc12)C(=O)N[C@@H](CCCCN)C(=O)N1CCC[C@H]1C(=O)N[C@H](C(=O)N[C@@H](CCCNC(=N)N)C(=O)N[C@@H](CCCNC(=N)N)C(=O)N[C@@H](CCC(=O)O)C(=O)N[C@H](C(=O)N[C@@H](CCC(=O)O)C(=O)N[C@H](C(=O)O)C(C)C)[C@@H](C)O)[C@@H](C)O` [HPV E6 #35 (modified)] (Biotin-GRWTGRAMSAWKPTRRETEV-OH; C-terminus assumed) was tested. Which Classification ([1]; PDZ Domain 1) did it give?
Answer: 5 (A450 nm of 4 more than 2× repeated)

Question: What about the Classification ([1]; PDZ Domain 1, 2) of the same compound?
Answer: 5 (A450 nm of 4 more than 2× repeated)

Question: What about the Classification ([1]; PDZ Domain 2) of the same compound?
Answer: 5 (A450 nm of 4 more than 2× repeated)

Question: What about the Classification ([1]; PDZ Domain 3) of the same compound?
Answer: 5 (A450 nm of 4 more than 2× repeated)

Question: And the Kd [2]?
Answer: 350 nM

— patent US20050282743A1, “Molecular interactions in cells” (Arbor Vita Corporation, priority 2001, published 2005)
